Consider 34 compounds from patent publication US10112949B2, “6,7-dihydropyrazolo[1,5-a]pyrazin-4(5H)-one compounds and their use as negative allosteric modulators of mGluR2 receptors” (Janssen Pharmaceutica NV, priority 2014, dated 2018).

Read-outs that look alike come from different tables or passages of the source.

Series [1] has as its target human mGlu2 receptor (Homo sapiens, UniProt Q14416). Nature of the series: [35S]GTPγS binding assay, negative allosteric modulation of mGluR2.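 For all read-outs here: membranes from CHO cells expressing the receptor, compound with glutamate near EC80 (60 µM), 30 min preincubation then 30 min label uptake at 30 °C, percent of control glutamate response.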 Conditions: for Emax: read-out: GTPγS - hmGluR2 anGT Emax. For orientation: GTPγS is a poorly hydrolysed GTP analogue; its binding reports G protein activation.
Procedure: Here we describe the use of the [^35S]GTPγS binding assay using membranes from cells transfected with the human mGlu2 receptor and adapted from Schaffhauser et al. (Molecular Pharmacology, 2003, 4:798-810) for the detection of the negative allosteric modulation (NAM) properties of the compounds of this invention.
CHO-cells were cultured to pre-confluence and stimulated with 5 mM butyrate for 24 h. Cells were then collected by scraping in PBS and cell suspension was centrifuged (10 min at 4000 RPM in benchtop centrifuge). Supernatant was discarded and pellet gently resuspended in 50 mM Tris-HCl, pH 7.4 by mixing with an Ultra Turrax homogenizer. The suspension was centrifuged at 12,400 RPM (Sorvall F14S-6x250Y) for 10 minutes and the supernatant discarded. The pellet was homogenized in 5 mM Tris-HCl, pH 7.4 using an Ultra Turrax homogenizer and centrifuged again (13,000 RPM, 20 min, 4° C.). The final pellet was resuspended in 50 mM Tris-HCl, pH 7.4 and stored at −80° C. in appropriate aliquots before use. Protein concentration was determined by the Bradford method (Bio-Rad, USA) with bovine serum albumin as standard.
Measurement of mGluR2 negative allosteric modulatory activity of test compounds was performed as follows. Test compounds and glutamate were diluted in assay buffer containing 10 mM HEPES acid, 10 mM HEPES salt, pH 7.4, 100 mM NaCl, 3 mM MgCl2 and 10 μM GDP. Human mGlu2 receptor-containing membranes were thawed on ice and diluted in assay buffer supplemented with 18 μg/ml saponin. Membranes were pre-incubated with compound together with a predefined (˜EC80) concentration of glutamate (60 μM) for 30 min at 30° C. After addition of [^35S]GTPγS (f.c. 0.1 nM), assay mixtures were shaken briefly and further incubated to allow [^35S]GTPγS incorporation on activation (30 minutes, 30° C.). Final assay mixtures contained 7 μg of membrane protein in 10 mM HEPES acid, 10 mM HEPES salt, pH 7.4, 100 mM NaCl, 3 mM MgCl2, 10 μM GDP and 10 μg/ml saponin. Total reaction volume was 200 μl. Reactions were terminated by rapid filtration through Unifilter-96 GF/B plates (Perkin Elmer, Massachusetts, USA) using a 96-well filtermate universal harvester. Filters were washed 6 times with ice-cold 10 mM NaH2PO4/10 mM Na2HPO4, pH 7.4. Filters were then air-dried and 30 μl of liquid scintillation cocktail (Microscint-O) was added to each well. Membrane-bound radioactivity was counted in a Topcount.
Data were calculated as % of the control glutamate response, defined as the response that is generated upon addition of an EC80-equivalent concentration of glutamate. Sigmoid concentration-response curves plotting these percentages versus the log concentration of the test compound were analyzed using non-linear regression analysis. The concentration producing half-maximal inhibition was calculated as the IC50. The pIC50 values were calculated as the −log IC50, when the IC50 is expressed in M. Emax is defined as the relative maximal effect (i.e. maximal % inhibition relative to the control glutamate response).
Series [2] concerns rats. Nature of the series: Reversal of the effect of the mGluR2 PAM JNJ-42153605-induced inhibition of scopolamine-induced hyperlocomotion. In kind it is in vivo, rat. Conditions: for ED50: rat, route PO (route cell empty for Co. No. 22, 25, 18, 19, 29), criterion total distance >1500 cm, read-out: ED50 SCOP JNJ-42153605. The protocol:
2) Reversal of the Effect of the mGluR2 PAM JNJ-42153605-Induced Inhibition of Scopolamine-Induced Hyperlocomotion Apparatus
Motor activity was measured in microprocessor-based motor activity arenas (closed gray PVC cylinders with a height of 39 cm and a diameter of 31 cm). Each arena was placed on an infrared LED (8×8 LEDs) lit box (white PVC squared box; 40×40 cm^2; height 12.5 cm. An infrared-sensitive tube camera and a white light source were mounted to the ceiling above the observation chamber to track the animal. The total distance traveled (cm) was recorded and analyzed using the Noldus Ethovision XT Video Tracking System (Version 7.0.418; Noldus, Wageningen, The Netherlands). The intensity of the light within the activity cages (measured in the centre at the level of the floor) ranged between 4 and 8 LUX.
The rats were pretreated with test compound or vehicle at 60 min before the start of the activity recordings and placed into individual cages. The rats were challenged with JNJ-42153605 (3-(cyclopropylmethyl)-7-(4-phenylpiperidin-1-yl)-8-(trifluoromethyl)-[1,2,4]triazolo[4,3-a]pyridine; WO2010/130424; Cid et al. J. Med. Chem. 2012, 55, 8770-8789) (20 mg/kg, i.v.) 30 min before the start of the activity recording combined with scopolamine (0.16 mg/kg, i.v.) just before the start of the activity measurements. Immediately after the injection of scopolamine, the rats were placed into the activity monitors and total distance travelled over the first 30 min was measured.
Solvent-Pretreated Control Rats.
For reversal of the inhibitory effect of JNJ-42153605 on the scopolamine-induced hyperlocomotion, the following all-or-none criteria were adopted: (1) reversal: total distance >1500 cm.

The nature of series [3]: Induction of mydriasis. Conditions: Wiga, in vivo, rat, route PO; for ED50: maximum pupil diameter >25 units over 1, 2 or 3 h post-administration, read-out: ED50 MYD Test 2. The method, then: 3) Induction of Mydriasis
The pupil diameter of Wiga rats was measured with a microscopic micrometer (1 unit= 1/24 mm). Criteria for drug-induced effects: pupil diameter >25 units for mydriasis (in controls: 1.9%) 1 h post-administration of the test compound (test 1) or 1, 2 or 3 h post-administration of the test compound (test 2, wherein the maximum pupil diameter over the full 3 h period is reported).

Series [4] relates to apomorphine-challenged rats. Nature of the series: Reversal of LY-404039-induced decrease of palpebral opening in apomorphine-challenged rats. In kind it is in vivo, rat. Conditions: for ED50: rat, criterion cumulative palpebral opening score >26, read-out: ED50 APO LY-404039. The protocol: B) In Vivo Pharmacology 1) Reversal of LY-404039-Induced Decrease of Palpebral Opening in Apomorphine-Challenged Rats.
Male Wiga Wistar rats (Crl:WI; Charles River Germany; 220±40 g) were housed under standard laboratory conditions (21±2° C.; 50-65% relative humidity; light-dark cycle set at 12 h; lights on at 6.00 h) and fasted overnight prior to the start of the experiments (tap water remained available ad libitum). During the test period, they were housed in individual cages. Palpebral opening was scored every 5 min over the first hour after injection of apomorphine (1.0 mg/kg, i.v.) in animals either pretreated or not pretreated with LY-404039 (2.5 mg/kg, s.c.) at 1 h prior to the apomorphine injection. The animals were also pretreated with test compound or solvent at a predefined interval before apomorphine challenge. The score system was: (5) exophthalmos, (4) wide open, (3) open for three-quarters, (2) half open, (1) open for one-quarter, (0) closed. The scores for palpebral opening were cumulated over the 60-min observation period.

Setting [5] is: historical solvent-pretreated control rats, first 30 min.
The mark [6] stands for this setting: control rats, scores cumulated over 60 min.

human mGlu2 receptor, sequence (Q14416 19-872): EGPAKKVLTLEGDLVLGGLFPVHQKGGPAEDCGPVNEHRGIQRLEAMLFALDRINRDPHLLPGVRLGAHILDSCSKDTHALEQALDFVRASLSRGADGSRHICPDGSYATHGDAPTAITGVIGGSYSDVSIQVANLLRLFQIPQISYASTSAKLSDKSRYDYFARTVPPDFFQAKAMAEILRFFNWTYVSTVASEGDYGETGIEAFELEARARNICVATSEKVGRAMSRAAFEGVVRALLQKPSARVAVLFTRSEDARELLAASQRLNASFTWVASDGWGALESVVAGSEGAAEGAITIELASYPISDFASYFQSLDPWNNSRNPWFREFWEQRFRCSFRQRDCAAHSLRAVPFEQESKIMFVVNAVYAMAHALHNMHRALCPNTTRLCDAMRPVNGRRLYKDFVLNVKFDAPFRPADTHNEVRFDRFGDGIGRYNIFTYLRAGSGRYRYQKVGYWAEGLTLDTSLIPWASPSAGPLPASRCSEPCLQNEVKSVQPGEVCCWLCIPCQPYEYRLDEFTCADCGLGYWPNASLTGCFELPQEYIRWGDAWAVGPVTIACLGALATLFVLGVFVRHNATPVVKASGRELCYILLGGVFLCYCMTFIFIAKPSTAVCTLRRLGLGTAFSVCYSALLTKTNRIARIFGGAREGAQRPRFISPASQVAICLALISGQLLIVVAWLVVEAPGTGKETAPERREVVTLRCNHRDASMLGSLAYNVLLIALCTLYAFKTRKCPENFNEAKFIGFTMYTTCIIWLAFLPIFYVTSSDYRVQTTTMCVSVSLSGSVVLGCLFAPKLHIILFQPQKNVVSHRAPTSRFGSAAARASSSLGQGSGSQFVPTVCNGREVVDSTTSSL

As for `C[C@H]1CN(c2ccc(C(F)(F)F)cc2)C(=O)c2c(C#Cc3cncc(CF)c3)cnn21` [compound 26], in series [1], the IC50 was 37.2 nM and the Emax was determined as 108%.
For `CNc1ccc(C#Cc2cnn3c2C(=O)N(c2ccc(Cl)c(Cl)c2)C[C@@H]3C)cn1` [compound 3], in series [1], the IC50 is 2.24 nM and the Emax worked out at 105%.
The like results for `C[C@H]1CN(c2ccc(Cl)c(Cl)c2)C(=O)c2c(C#Cc3ccc(N(C)C)nc3)cnn21` [compound 12] were, in that order, 33.1 nM and 107%.
The like results for `C[C@H]1CN(c2ccc(C(F)(F)F)cc2)C(=O)c2c(C#Cc3cccc(S(=O)(=O)F)c3)cnn21` [compound 34] were, in that order, 14.5 nM and 110%.
The corresponding values for `Cc1cc(C#Cc2cnn3c2C(=O)N(c2ccc(C(F)(F)F)cc2)C[C@@H]3C)ccn1` [compound 9] are 8.71 nM and 107%.
In the case of `Cc1ccc(C#Cc2cnn3c2C(=O)N(c2ccc(C(F)(F)F)cc2)C[C@@H]3C)cn1` [compound 11], in series [1], the IC50 was 10.2 nM and the Emax was 103%.
With `C[C@H]1CN(c2ccc(Cl)c(Cl)c2)C(=O)c2c(C#Cc3ccc(N)nc3)cnn21` [compound 2], in series [1], the IC50 is 1.12 nM and the Emax came out at 105%.
With `C[C@H]1CN(c2ccc(C(F)(F)F)cc2)C(=O)c2c(C#Cc3cnc(N)cc3CO)cnn21` [compound 29], the ED50 in series [2] was greater than 0.63 mg/kg. Besides, in series [1], the IC50 is 2.95 nM and the Emax came to 106%.
`CN1[C@@H]2C[C@@H](OC(=O)[C@H](CO)c3ccccc3)C[C@H]1[C@@H]1O[C@@H]12` [Scopolamine, scopolamine, reference compound]: in series [2] (setting [5]), the “Total distance >1500 cm (%)” value is recorded as 100%; the “Total distance >4400 cm (%)” value is listed as 95.8%; the “Total distance travelled, Median (cm)” value was determined as 7246 cm.
On to `CNc1ccc(C#Cc2cnn3c2C(=O)N(c2ccc(C(F)(F)F)c(OC)n2)C[C@@H]3C)cn1` [compound 32], for which, in series [1], the IC50 is 9.33 nM and the Emax was 106%.
In the case of `CNc1ncccc1C#Cc1cnn2c1C(=O)N(c1ccc(C(F)(F)F)cc1)C[C@@H]2C` [compound 24], in series [1], the IC50 was 15.8 nM and the Emax was 99%.
With `C[C@H]1CN(c2ccc(C(F)(F)F)cc2)C(=O)c2c(C#Cc3cnc(N)cc3CF)cnn21` [compound 23], in series [1], the IC50 is 2.75 nM and the Emax amounted to 106%.
Consider `C[C@H]1CN(c2ccc(Cl)c(Cl)c2)C(=O)c2c(C#Cc3ccc(F)nc3)cnn21` [compound 7], for which, in series [1], the IC50 was 6.76 nM and the Emax is 105%.
For the compound `COc1ccc(N2C[C@H](C)n3ncc(C#Cc4ccc(N)nc4)c3C2=O)cc1Cl` [compound 8], in series [1], the IC50 was 8.51 nM and the Emax was found to be 107%.
With `C[C@H]1CN(c2ccc(C(F)(F)F)cc2)C(=O)c2c(C#Cc3cnc(N)c(CF)c3)cnn21` [compound 21], in series [1], the IC50 is 41.7 nM and the Emax stood at 102%.
The like results for `C[C@H]1CN(c2ccc(C(F)(F)F)cc2)C(=O)c2c(C#Cc3cncc(CO)c3)cnn21` [compound 28] were, in that order, 53.7 nM and 101%.
Consider `C[C@H]1CN(c2ccc(C(F)(F)F)c(Cl)c2)C(=O)c2c(C#Cc3ccc(N)nc3)cnn21` [compound 13], for which, in series [2], the ED50 was 0.028 mg/kg. Further, in series [3], the ED50 is greater than 40 mg/kg. Further, in series [1], the IC50 was 1.1 nM and the Emax amounted to 108%.
On to `CNc1ccc(C#Cc2cnn3c2C(=O)N(c2ccc(C(F)(F)F)c(Cl)n2)C[C@@H]3C)cn1` [compound 31], for which, in series [1], the IC50 was 8.71 nM and the Emax came out at 111%.
The corresponding values for `C[C@H]1CN(c2ccc(C(F)(F)F)cc2)C(=O)c2c(C#Cc3ccnc(N)c3)cnn21` [compound 10] are 10 nM and 105%.
`C[C@H]1CN(c2ccc(C(F)(F)F)cc2)C(=O)c2c(C#Cc3ccc(N)nc3)cnn21` [compound 1]: the ED50 in series [4] (route PO) is 0.08 mg/kg; in series [4] (route SC) it was 0.06 mg/kg; in series [2] it was 0.17 mg/kg; in series [3] it was greater than 40 mg/kg. Further, the ED50 at 1 h in series [3] (pupil diameter >25 units 1 h post-administration, read-out: ED50 MYD Test 1) was greater than 10 mg/kg. Also, the IC50 in series [1] was 1.58 nM. Besides, the Emax in series [1] came out at 106%.
As to `C[C@H]1CN(c2ccc(C(F)(F)F)c(CF)n2)C(=O)c2c(C#Cc3ccc(N)nc3)cnn21` [compound 19], the ED50 in series [2] was greater than 0.63 mg/kg. For the same compound, in series [1], the IC50 was 2.14 nM and the Emax was 104%.
With `COCc1cncc(C#Cc2cnn3c2C(=O)N(c2ccc(C(F)(F)F)cc2)C[C@@H]3C)c1` [compound 27], in series [1], the IC50 is 97.7 nM and the Emax was 106%.
Take `CN1CCc2cccc3c2[C@H]1Cc1ccc(O)c(O)c1-3` [Apomorphine alone, apomorphine]: the “Palpebral opening score, Median score” value in series [4] (control rats, apomorphine 1.0 mg/kg i.v., LY-404039 2.5 mg/kg s.c., scores cumulated over 60 min) is given as 43. For the same compound, the “Palpebral opening score, Occurrence score >26 (%)” value in series [4] (setting [6]) came out at 99.5%. In addition, the “Palpebral opening score, Occurrence score >34 (%)” value is on record as 95.9% in series [4] (setting [6]) and 95.5% in series [4] (control rats, scores cumulated over 60 min, listed as apomorphine alone).
Turning to `C[C@H]1CN(c2ccc(C(F)(F)F)cc2)C(=O)c2c(C#Cc3cccnc3N)cnn21` [compound 17], in series [1], the IC50 is 14.8 nM and the Emax turned out to be 105%.
For `C[C@H]1CN(c2ccc(C(F)(F)F)cc2)C(=O)c2c(C#Cc3ccccc3)cnn21` [compound 5], in series [1], the IC50 was 4.07 nM and the Emax is 105%.
For `COc1ccc(C#Cc2cnn3c2C(=O)N(c2ccc(Cl)c(Cl)c2)C[C@@H]3C)cn1` [compound 6], in series [1], the IC50 is 5.62 nM and the Emax came to 106%.
Turning to `COc1nc(N2C[C@H](C)n3ncc(C#Cc4ccc(N)nc4)c3C2=O)ccc1C(F)(F)F` [compound 33], in series [1], the IC50 is 2.51 nM and the Emax was 109%.
In the case of `C[C@H]1CN(c2ccc(C(F)(F)F)cc2)C(=O)c2c(C#Cc3ccc(S(=O)(=O)F)cc3)cnn21` [compound 35], in series [1], the IC50 is 42.7 nM and the Emax was determined as 108%.
Take `C[C@H]1CN(c2ccc(C(F)(F)F)c(Cl)c2)C(=O)c2c(C#Cc3cnc(N)cc3CO)cnn21` [compound 22]: in series [2], the ED50 is greater than 0.63 mg/kg. Also, in series [1], the IC50 was 0.832 nM and the Emax is 106%.
With `COCc1cc(C#Cc2cnn3c2C(=O)N(c2ccc(C(F)(F)F)cc2)C[C@@H]3C)cnc1N` [compound 20], in series [1], the IC50 is 24 nM and the Emax was found to be 102%.
For `COCc1cc(N)ncc1C#Cc1cnn2c1C(=O)N(c1ccc(C(F)(F)F)cc1)C[C@@H]2C` [compound 25], in series [2], the ED50 turned out to be 0.08 mg/kg. Further, in series [1], the IC50 was 2.24 nM and the Emax amounted to 105%.
In the case of `C[C@H]1CN(c2ccc(C(F)C(F)(F)F)cc2)C(=O)c2c(C#Cc3ccc(N)nc3)cnn21` (some centres unmarked) [compound 16], in series [1], the IC50 is 7.08 nM and the Emax came out at 104%.
`C[C@H]1CN(c2ccc(C(F)(F)F)c(F)c2)C(=O)c2c(C#Cc3ccc(N)nc3)cnn21` [compound 18]: the ED50 in series [2] was determined as 0.13 mg/kg. Also, in series [1], the IC50 is 2.69 nM and the maximal response (Emax) came to 107%.
Turning to `C[C@H]1CN(c2ccc(C(F)(F)F)cn2)C(=O)c2c(C#Cc3ccc(N)nc3)cnn21` [compound 4], in series [1], the IC50 is 2.4 nM and the Emax stood at 103%.

Broadly, the IC50 is the concentration that gives 50% inhibition. Lower therefore signals higher potency. For orientation: Emax means the maximal effect, on the per cent scale that the assay sets. The ED50 is the dose at which the effect has come halfway, by size or by number of responders.
